For experiment [1], the target named is Delta-type opioid receptor (Mus musculus, UniProt P32300). Description: Displacement of [3H]DPDPE from mouse whole brain DOR. In general terms: Loss of bound radioactivity is the signal in a displacement assay; it reports binding, not function.
For experiment [2], the target named is Mu-type opioid receptor (Mus musculus, UniProt P42866). The experiment can be described thus: Displacement of [3H]DAMGO from mouse whole brain MOR.
In experiment [3] the target is Kappa-type opioid receptor (Cavia porcellus, UniProt P41144). The experiment can be described thus: Displacement of [3H]U-69593 from guinea pig cerebellum KOR.
Chain of Kappa-type opioid receptor (Cavia porcellus, UniProt P41144) (P41144 whole entry): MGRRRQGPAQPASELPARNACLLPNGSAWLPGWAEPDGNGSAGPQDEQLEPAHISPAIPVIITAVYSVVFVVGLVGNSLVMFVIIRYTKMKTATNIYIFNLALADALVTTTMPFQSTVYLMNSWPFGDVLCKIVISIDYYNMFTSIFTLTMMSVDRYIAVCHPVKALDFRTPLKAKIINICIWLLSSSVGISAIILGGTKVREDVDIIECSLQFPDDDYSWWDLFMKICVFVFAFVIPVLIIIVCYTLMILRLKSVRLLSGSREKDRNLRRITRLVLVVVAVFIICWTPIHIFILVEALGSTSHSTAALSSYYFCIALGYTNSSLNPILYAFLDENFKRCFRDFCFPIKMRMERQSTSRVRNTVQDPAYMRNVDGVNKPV
Experiment [4] deals with T1, Delta-type opioid receptor (Homo sapiens, UniProt P41143). The experiment can be described thus: Agonist activity at human DOR expressed in CHO cells by [35S]GTPgammaS binding assay relative to DPDPE. The format is functional, cell-based.
T1 sequence (P41143 whole entry): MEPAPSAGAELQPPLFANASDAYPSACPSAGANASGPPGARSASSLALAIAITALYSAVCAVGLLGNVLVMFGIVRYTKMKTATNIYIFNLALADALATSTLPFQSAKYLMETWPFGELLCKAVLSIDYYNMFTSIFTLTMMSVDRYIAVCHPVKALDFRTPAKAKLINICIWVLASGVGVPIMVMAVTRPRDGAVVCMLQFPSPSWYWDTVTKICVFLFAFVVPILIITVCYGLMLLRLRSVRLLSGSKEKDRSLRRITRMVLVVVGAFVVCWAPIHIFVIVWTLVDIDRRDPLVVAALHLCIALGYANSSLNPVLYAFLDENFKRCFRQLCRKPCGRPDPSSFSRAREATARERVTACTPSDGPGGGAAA
Experiment [5] concerns the target T2, Kappa-type opioid receptor (Homo sapiens, UniProt P41145). Description: Agonist activity at human KOR expressed in CHO cells by [35S]GTPgammaS binding assay. It counts as functional, cell-based. (In general: GTPγS is a poorly hydrolysed GTP analogue; its binding reports G protein activation.)
In experiment [6] the target is T3, Mu-type opioid receptor (Homo sapiens, UniProt P35372). The experiment can be described thus: Agonist activity at human MOR expressed in CHO cells by [35S]GTPgammaS binding assay. It counts as functional, cell-based.
T3 sequence (P35372 whole entry): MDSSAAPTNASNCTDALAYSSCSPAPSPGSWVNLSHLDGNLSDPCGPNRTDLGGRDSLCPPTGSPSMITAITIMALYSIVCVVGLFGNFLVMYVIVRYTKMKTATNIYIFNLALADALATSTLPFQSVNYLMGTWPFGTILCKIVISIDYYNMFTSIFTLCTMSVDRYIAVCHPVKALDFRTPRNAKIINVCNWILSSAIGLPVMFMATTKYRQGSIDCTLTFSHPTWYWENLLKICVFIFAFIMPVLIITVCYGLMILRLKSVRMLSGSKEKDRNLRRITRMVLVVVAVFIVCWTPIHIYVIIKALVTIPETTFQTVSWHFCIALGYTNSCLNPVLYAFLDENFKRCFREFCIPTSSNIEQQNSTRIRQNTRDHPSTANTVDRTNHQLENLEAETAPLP
Experiment [7] has as its target T1, Delta-type opioid receptor. Description: Agonist activity at human DOR expressed in CHO cells by [35S]GTPgammaS binding assay. It counts as functional, cell-based.
For experiment [8], the target named is T3, Mu-type opioid receptor. Description: Agonist activity at human MOR expressed in CHO cells by [35S]GTPgammaS binding assay relative to DAMGO. It counts as functional, cell-based.
Experiment [9] concerns the target T2, Kappa-type opioid receptor. The experiment can be described thus: Agonist activity at human KOR expressed in CHO cells by [35S]GTPgammaS binding assay relative to U-69593. It counts as functional, cell-based.

Broadly, the Ki is a dissociation constant, usually derived from enzyme kinetics or from competition with a known ligand. Broadly, the Emax is the greatest response seen or fitted, relative to the assay's reference. One may read the EC50 as the concentration giving half of the maximal effect.

Chain of Mu-type opioid receptor (Mus musculus, UniProt P42866) (P42866 whole entry): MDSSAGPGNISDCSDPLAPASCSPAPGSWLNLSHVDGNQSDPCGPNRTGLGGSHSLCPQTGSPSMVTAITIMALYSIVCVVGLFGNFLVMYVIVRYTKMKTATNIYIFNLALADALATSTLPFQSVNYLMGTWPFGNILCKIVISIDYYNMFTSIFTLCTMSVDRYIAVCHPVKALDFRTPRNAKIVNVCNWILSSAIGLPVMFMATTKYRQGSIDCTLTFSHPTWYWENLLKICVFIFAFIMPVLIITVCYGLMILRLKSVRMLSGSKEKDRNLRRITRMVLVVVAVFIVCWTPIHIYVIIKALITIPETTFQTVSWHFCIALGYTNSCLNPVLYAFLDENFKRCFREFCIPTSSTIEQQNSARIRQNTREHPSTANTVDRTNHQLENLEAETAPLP
Chain of Delta-type opioid receptor (Mus musculus, UniProt P32300) (P32300 whole entry): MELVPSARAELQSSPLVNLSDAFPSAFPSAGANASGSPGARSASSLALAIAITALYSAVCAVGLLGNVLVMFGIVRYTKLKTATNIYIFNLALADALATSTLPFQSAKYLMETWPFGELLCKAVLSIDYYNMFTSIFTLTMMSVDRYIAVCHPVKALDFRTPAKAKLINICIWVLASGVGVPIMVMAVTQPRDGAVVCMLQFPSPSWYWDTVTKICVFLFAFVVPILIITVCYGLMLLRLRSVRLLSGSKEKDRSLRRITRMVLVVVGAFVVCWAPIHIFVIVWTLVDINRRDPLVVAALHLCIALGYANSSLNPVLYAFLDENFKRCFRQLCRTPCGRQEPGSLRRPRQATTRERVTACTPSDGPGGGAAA
T2 sequence (P41145 whole entry): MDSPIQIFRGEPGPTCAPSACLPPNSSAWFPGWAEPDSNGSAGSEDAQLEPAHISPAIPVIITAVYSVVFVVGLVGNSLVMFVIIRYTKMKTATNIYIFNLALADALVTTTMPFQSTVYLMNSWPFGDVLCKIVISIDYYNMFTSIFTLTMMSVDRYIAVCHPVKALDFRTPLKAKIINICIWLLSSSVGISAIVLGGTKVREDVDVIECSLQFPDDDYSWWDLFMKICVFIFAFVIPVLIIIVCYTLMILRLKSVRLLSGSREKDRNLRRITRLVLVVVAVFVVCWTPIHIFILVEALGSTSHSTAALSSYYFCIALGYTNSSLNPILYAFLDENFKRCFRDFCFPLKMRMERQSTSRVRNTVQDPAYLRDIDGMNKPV

For the molecule `C[C@]1(c2ccccc2O)O[C@H]2CO[C@H]3CO[C@@H]1N32`, the inhibition constant (Ki) (in experiment [1]; at Mu-type opioid receptor [2]; in [3]) was > 1000 nM in each case.
With `C[C@@]1(c2ccc(O)cc2)O[C@@H]2N3[C@H]1O[C@](C)(c1ccc(O)cc1)[C@@H]3O[C@]2(C)c1ccc(O)cc1`, the Ki (in [1]; on Mu-type opioid receptor [2]; in experiment [3]) was > 1000 nM each time.
For `C[C@@]1(c2ccc(O)cc2)O[C@@H]2N3[C@H](CO[C@H]31)O[C@]2(C)c1ccc(O)cc1`, the Ki (in experiment [1]; on Mu-type opioid receptor [2]; in experiment [3]) was > 1000 nM each time.
`C[C@@]1(c2ccccc2O)O[C@@H]2N3[C@H](CO[C@H]31)O[C@]2(C)c1ccccc1O`: the maximum response (Emax) in [4] is 73.6%; on Mu-type opioid receptor [8], 89.2%; in experiment [9] it was 131%. Further, the results for the Ki (in [1]; at Mu-type opioid receptor [2]; in [3]) were 88.8 nM, 20.5 nM and 9.17 nM, respectively. For the same molecule, the half-maximal effective concentration (EC50) turned out to be 9.95 nM in [5], 57.6 nM on Mu-type opioid receptor [6] and 52.7 nM in experiment [7].
For the molecule `C[C@]1(c2ccc(O)cc2)O[C@H]2CO[C@@H]3N2[C@H]1O[C@]3(C)c1ccc(O)cc1`, the Ki (in experiment [1]; at Mu-type opioid receptor [2]; in experiment [3]) was > 1000 nM each time.
On to `C[C@@]1(c2ccccc2O)O[C@H]2CO[C@@H]3N2[C@H]1O[C@]3(C)c1ccccc1O`, for which the inhibitory constant (Ki) (in experiment [1]; at Mu-type opioid receptor [2]; in [3]) was > 1000 nM each time.
Consider `C[C@]1(c2ccccc2O)O[C@H]2CO[C@@H]3N2[C@H]1O[C@]3(C)c1ccccc1O`, for which the inhibitory constant (Ki) (in experiment [1]; at Mu-type opioid receptor [2]; in experiment [3]) was > 1000 nM throughout.
As to `C[C@@]1(c2ccccc2O)O[C@@H]2N3[C@H]1O[C@](C)(c1ccccc1O)[C@@H]3O[C@]2(C)c1ccccc1O`, the Ki (in experiment [1]; at Mu-type opioid receptor [2]; in experiment [3]) was > 1000 nM in each case.
Consider `C[C@@]1(c2ccccc2O)O[C@H]2CO[C@@H]3N2[C@H]1O[C@@]3(C)c1ccccc1O`, for which the Ki (in experiment [1]; at Mu-type opioid receptor [2]; in experiment [3]) was > 1000 nM in each case.
For the molecule `C[C@@]1(c2ccc(O)cc2)O[C@H]2CO[C@H]3CO[C@@H]1N32`, the inhibitory constant (Ki) (in experiment [1]; on Mu-type opioid receptor [2]; in [3]) was > 1000 nM in each case.
With `C[C@@]1(c2ccccc2O)O[C@H]2CO[C@H]3CO[C@@H]1N32`, the Ki (in experiment [1]; on Mu-type opioid receptor [2]; in experiment [3]) was > 1000 nM throughout.
As to `C[C@@]1(c2ccccc2O)O[C@@H]2N3[C@H]1O[C@](C)(c1ccccc1O)[C@@H]3O[C@@]2(C)c1ccccc1O`, the Ki (in experiment [1]; at Mu-type opioid receptor [2]; in experiment [3]) was > 1000 nM each time.
As to `C[C@@]1(c2ccc(O)cc2)O[C@H]2CO[C@@H]3N2[C@H]1O[C@@]3(C)c1ccc(O)cc1`, the inhibition constant Ki (in experiment [1]; at Mu-type opioid receptor [2]; in experiment [3]) was > 1000 nM each time.
Consider `C[C@]1(c2ccc(O)cc2)O[C@H]2CO[C@H]3CO[C@@H]1N32`, for which the inhibitory constant (Ki) (in experiment [1]; on Mu-type opioid receptor [2]; in [3]) was > 1000 nM each time.
On to `C[C@@]1(c2ccc(O)cc2)O[C@H]2CO[C@@H]3N2[C@H]1O[C@]3(C)c1ccc(O)cc1`, for which the inhibition constant (Ki) (in [1]; at Mu-type opioid receptor [2]; in experiment [3]) was > 1000 nM each time.
Take `C[C@@]1(c2ccc(O)cc2)O[C@@H]2N3[C@H]1O[C@@](C)(c1ccc(O)cc1)[C@@H]3O[C@@]2(C)c1ccc(O)cc1`: the inhibition constant (Ki) (in [1]; at Mu-type opioid receptor [2]; in experiment [3]) was > 1000 nM each time.
For the molecule `C[C@@]1(c2ccccc2O)O[C@@H]2N3[C@H]1O[C@@](C)(c1ccccc1O)[C@@H]3O[C@@]2(C)c1ccccc1O`, the Ki (in [1]; on Mu-type opioid receptor [2]; in experiment [3]) was > 1000 nM throughout.
On to `C[C@@]1(c2ccc(O)cc2)O[C@@H]2N3[C@H]1O[C@](C)(c1ccc(O)cc1)[C@@H]3O[C@@]2(C)c1ccc(O)cc1`, for which the inhibitory constant (Ki) (in experiment [1]; at Mu-type opioid receptor [2]; in experiment [3]) was > 1000 nM in each case.

For the origin of these results see ChEMBL document CHEMBL3352005, “Synthesis of a novel universal opioid receptor agonist with the 1,3,5-trioxazatriquinane skeleton and its pharmacologies” (Bioorg Med Chem Lett, 2014).
